This test deals with FOG of α-DG on the cell surfaces. Description: Cell-based HTS/HCS assay, IIH6 antibody as probe (EC1.5). The settings on record: concentration of the compound required to enhance the FOG of α-DG by 50% over the controls; cell-based assays in vitro. From the text:
Protein glycosylation is a multiple-step process that requires a large number of proteins in the secretory pathway of the cells. Thus we chose cell-based assay because our goal is to identify enhancer the FOG of α-DG on the cell surfaces. The assay system is HTS/HCS friendly and can adapt to various cell lines including myotubes as well as various readout methods including AlphaScreen, fluorescence density and HCS/fluorescence imaging. The standard operation protocol (SOP) for adhesion cells is described below and the FIG. 1 illustrates the assay process using myoblasts as the controls and screening cells and the IIH6 antibody as the probe. Other adhesion cells such CHO (Chinese hamster ovary) cell line can be implemented into this assay by simply removing the differentiation step.
Cell cultures: All cells are cultured at 37° C., 5% CO2, in appropriate media (F-12 for epithelial cells and DMEM for myoblasts) supplement with 10-20% fetal calf serum (FCS) and 1% antibiotics. […] The cells will be detached with trypsin EDTA and suspended in the cell culture media. The cells will be counted and seeded into the multiple-well plates as desired. Myotubes formation: When the myoblasts reach confluence, change the growth media to differential media (DEME with 2% horse serum) and incubate for 4-5 days.
The cells were fixed, permeablized, and then blocked with 10% BSA in PBS for 1 hour. […] After washing the cells with PBS for 2 times, the DAPI was used to stain the cells for 15 mins and wash 3 times with PBS. The images were captured with an inverted Olympus fluorescent microscope. For small compound localization experiment, the cells are incubated with the biotin conjugated compounds and then the cells were washed and incubated with streptavidin-Dye and then images will be captured to see the location of the compound-target-protein.
H, EC1.5<5 μM; M, EC1.5-20 μM; L, EC1.5 20-50 μM; VL, EC1.5>50 μM.
Consider `CCC(c1nnnn1Cc1cccs1)N1CCN(c2nc3cccc(C(F)(F)F)c3s2)CC1` (stereo not drawn) [Compound 26, 2-(4-(1-(1-(thiophen-2-ylmethyl)-1H-tetrazol-5-yl)propyl)piperazin-1-yl)-7-(trifluoramethyl)benzothiazole], for which the “Activity (EC1.5)” value is reported as “L (EC1.5 20-50 μM)”.

With `CCC(NCCNc1nc2cccc(F)c2s1)c1nnnn1Cc1cccs1` (stereo not drawn) [Compound 27, N^1-(7-fluorobenzothiazol-2-yl)-N^2-(1-(1-(thiophen-2-ylmethyl)-1H-tetrazol-5-yl)propyl)ethane-1,2-diamine], the “Activity (EC1.5)” value is reported as “M (EC1.5-20 μM)”.

Turning to `CCC(c1nnnn1Cc1cccs1)N1CCN(c2nc3cc([N+](=O)[O-])ccc3s2)CC1` (stereo not drawn) [Compound 28, 5-nitro-2-(4-(1-(1-(thiophen-2-ylmethyl)-1H-tetrazol-5-yl)propyl)piperazin-1-yl)benzothiazole], the “Activity (EC1.5)” value is listed as “M (EC1.5-20 μM)”.

Turning to `CCC(c1nnnn1Cc1cccs1)N1CCN(c2nc3cc(N)ccc3s2)CC1` (stereo not drawn) [Compound 29, 5-amino-2-(4-(1-(1-(thiophen-2-ylmpthyl)-1H-tetrazol-5-yl)propyl)piperazin-1-yl)benzothiazole], the “Activity (EC1.5)” value was “H (EC1.5<5 μM)”.

For `CCC(c1nnnn1Cc1cccs1)N1CCN(c2nc3c(F)cccc3s2)CC1` (stereo not drawn) [Compound 30, 4-fluoro-2-(4-(1-(1-(thiophen-2-ylmethyl)-1H-tetrazol-5-yl)propyl)piperazin-1-yl)benzothiazole], the “Activity (EC1.5)” value is listed as “H (EC1.5<5 μM)”.

Consider `CCC(c1nnnn1Cc1cccs1)N1CCN(c2nc3ccc(C(=O)OC)cc3s2)CC1` (stereo not drawn) [Compound 31, methyl 2-(4-(1-(1-(thiophen-2-ylmethyl)-1H-tetrazol-5-yl)propyl)piperazin-1-yl)benzothiazole-6-carboxylate], for which the “Activity (EC1.5)” value was “L (EC1.5 20-50 μM)”.

For the compound `CCC(c1nnnn1Cc1cccs1)N1CCN(c2nc3ccc(C(=O)O)cc3s2)CC1` (stereo not drawn) [Compound 32, 2-(4-(1-(1-(thiophen-2-ylmethyl)-1H-tetrazol-5-yl)propyl)piperazin-1-yl)benzothiazole-6-carboxylic acid], the “Activity (EC1.5)” value is “L (EC1.5 20-50 μM)”.

Regarding `O=C(c1nnnn1Cc1cccs1)N1CCN(c2nc3cccc(F)c3s2)CC1` [Compound 33, (4-(7-fluorobenzothiazol-2-yl)piperazin-1-yl)(1-(thiophen-2-ylmethyl)-1H-tetrazol-5-yl)methanone], the “Activity (EC1.5)” value is listed as “L (EC1.5 20-50 μM)”.

For `CCC(c1nnnn1Cc1cccs1)N1CCN(c2nc3cccc(Br)c3s2)CC1` (stereo not drawn) [Compound 34, 7-bromo-2-(4-(1-(1-(thiophen-2-ylmethyl)-1H-tetrazol-5-yl)propyl)piperazin-1-yl)benzothiazole], the “Activity (EC1.5)” value is “L (EC1.5 20-50 μM)”.

Regarding `CCC(c1nnnn1Cc1cccs1)N1CCN(c2nc3cccc(C(=O)OC)c3s2)CC1` (stereo not drawn) [Compound 35, Methyl 2-(4-(1-(1-(thiophen-2-ylmethyl)-1H-tetrazol-5-yl)propyl)piperazin-1-yl)benzothiazole-7-carboxylate], the “Activity (EC1.5)” value is “L (EC1.5 20-50 μM)”.

As for `CCC(c1nnnn1Cc1cccs1)N1CCN(c2nc3cccc(C(=O)O)c3s2)CC1` (stereo not drawn) [Compound 36, 2-(4-(1-(1-(thiophen-2-ylmethyl)-1H-tetrazol-5-yl)propyl)piperazin-1-yl)benzothiazole-7-carboxylic acid], the “Activity (EC1.5)” value was “L (EC1.5 20-50 μM)”.

Consider `CCC(c1nnnn1Cc1cccs1)N1CCN(c2nc3cccc(O)c3s2)CC1` (stereo not drawn) [Compound 37, 7-hydroxyl-2-(4-(1-(1-(thiophen-2-ylmethyl)-1H-tetrazol-5-yl)propyl)piperazin-1-yl)benzothiazole], for which the “Activity (EC1.5)” value is “L (EC1.5 20-50 μM)”.

In the case of `CCC(C(=O)NCc1cccs1)c1ccc(-c2nc3ccccc3s2)cc1` (stereo not drawn) [Compound 38, 2-(4-(benzothiazol-2yl)phenyl)-N-(thiophen-2-ylmethyl)butanamide], the “Activity (EC1.5)” value is on record as “M (EC1.5-20 μM)”.

With `CCC(C(=S)NCc1cccs1)c1ccc(-c2nc3ccccc3s2)cc1` (stereo not drawn) [Compound 39, 2-(4-(benzothiazol-2-yl)phenyl)-N-(thiophen-2-ylmethyl)butanethioamide], the “Activity (EC1.5)” value is on record as “M (EC1.5-20 μM)”.

As for `CCC(c1ccc(-c2nc3ccccc3s2)cc1)c1nnnn1Cc1cccs1` (stereo not drawn) [Compound 40, 2-(4-(1-(1-(thiophen-2-ylmethyl)-1H-tetrazol-5-yl)propyl)phenyl)benzothiazole], the “Activity (EC1.5)” value is given as “M (EC1.5-20 μM)”.

Consider `CCC(c1nnnn1CCc1cccs1)N1CCN(c2nc3cccc(F)c3s2)CC1` (stereo not drawn) [Compound 41, 7-fluoro-2-(4-(1-(1-(2-(thiophen-2-yl)ethyl)-1H-tetrazol-5-yl)propyl)piperazin-1-yl)benzothiazole], for which the “Activity (EC1.5)” value is reported as “L (EC1.5 20-50 μM)”.

Turning to `CCC(c1nnnn1Cc1cncs1)N1CCN(c2nc3cccc(F)c3s2)CC1` (stereo not drawn) [Compound 42, 7-fluoro-2-(4-(1-(1-(thiazol-5-ylmethyl)-1H-tetrazol-5-yl)propyl)piperazin-1-yl)benzothiazole], the “Activity (EC1.5)” value is listed as “L (EC1.5 20-50 μM)”.

As to `CCC(c1nnnn1Cc1cccs1)N1CCN(Cc2nc3ccccc3s2)CC1` (stereo not drawn) [Compound 43, 2-((4-(1-(1-(thiophen-2-ylmethyl)-1H-tetrazol-5-yl)propyl)piperazin-1-yl)methyl)benzothiazole], the “Activity (EC1.5)” value was “L (EC1.5 20-50 μM)”.

As to `CCC(c1nnnn1Cc1cccs1)N1CCN(c2nc3c(F)cc(F)cc3s2)CC1` (stereo not drawn) [Compound 44, 4,6-difluoro-2-(4-(1-(1-(thiophen-2-ylmethyl)-1H-tetrazol-5-yl)propyl)piperazin-1-yl)benzothiazole], the “Activity (EC1.5)” value is recorded as “M (EC1.5-20 μM)”.

Take `CCC(c1nnnn1Cc1cccs1)N1CCN(c2nc3cc([N+](=O)[O-])cc(F)c3s2)CC1` (stereo not drawn) [Compound 45, 7-fluoro-5-nitro-2-(4-(1-(1-(thiophen-2-ylmethyl)-1H-tetrazol-5-yl)propyl)piperazin-1-yl)benzothiazole]: the “Activity (EC1.5)” value is “L (EC1.5 20-50 μM)”.

`CCC(c1nnnn1Cc1cccs1)N1CCN(c2nc3c(F)c(N)ccc3s2)CC1` (stereo not drawn) [Compound 47, 5-amino-4-fluoro-2-(4-(1-(1-(thiophen-2-ylmethyl)-1H-tetrazol-5-yl)propyl)piperazin-1-yl)benzothiazole]: the “Activity (EC1.5)” value is on record as “H (EC1.5<5 μM)”.

In the case of `CCC(c1nnnn1Cc1cccs1)N1CCN(c2nc3c(F)c(N)cc(F)c3s2)CC1` (stereo not drawn) [Compound 48, 5-amino-4,7-difluoro-2-(4-(1-(1-(thiophen-2-ylmethyl)-1H-tetrazol-5-yl)propyl)piperazin-1-yl)benzothiazole], the “Activity (EC1.5)” value is on record as “H (EC1.5<5 μM)”.

Turning to `CCC(c1nnnn1Cc1cccs1)N1CCN(c2nc3ccc(N)c(F)c3s2)CC1` (stereo not drawn) [Compound 49, 6-amino-7-fluoro-2-(4-(1-(1-(thiophen-2-ylmethyl)-1H-tetrazol-5-yl)propyl)piperazin-1-yl)benzothiazole], the “Activity (EC1.5)” value is “H (EC1.5<5 μM)”.

Consider `CCC(c1nnnn1Cc1cccs1)N1CCN(c2nc3c(F)cc(N)cc3s2)CC1` (stereo not drawn) [Compound 50, 6-amino-4-fluoro-2-(4-(1-(1-(thiophen-2-ylmethyl)-1H-tetrazol-5-yl)propyl)piperazin-1-yl)benzothiazole], for which the “Activity (EC1.5)” value is reported as “H (EC1.5<5 μM)”.

Turning to `CCC(c1nnnn1Cc1cccs1)N1CCN(c2nc3c(F)cc(N)c(F)c3s2)CC1` (stereo not drawn) [Compound 51, 6-amino-4,7-difluoro-2-(4-(1-(1-(thiophen-2-ylmethyl)-1H-tetrazol-5-yl)propyl)piperazin-1-yl)benzothiazole], the “Activity (EC1.5)” value was “H (EC1.5<5 μM)”.

On to `CCC(c1nnnn1Cc1cccs1)N1CCN(c2nc3c(F)c(N)c(N)c(F)c3s2)CC1` (stereo not drawn) [Compound 52, 5,6-diamino-4,7-difluoro-2-(4-(1-(1-(thiophen-2-ylmethyl)-1H-tetrazol-5-yl)propyl)piperazin-1-yl)benzothiazole], for which the “Activity (EC1.5)” value was “H (EC1.5<5 μM)”.

With `CCC(c1nnnn1CCc1cccs1)N1CCN(c2nc3cc(N)c(N)cc3s2)CC1` (stereo not drawn) [Compound 53, 5,6-diamino-2-(4-(1-(1-(thiophen-2-ylethyl)-1H-tetrazol-5-yl)propyl)piperazin-1-yl)benzothiazole], the “Activity (EC1.5)” value is “H (EC1.5<5 μM)”.

Take `CCC(c1nnnn1Cc1cccs1)N1CCN(c2nc3cc(N)c(N)cc3s2)CC1` (stereo not drawn) [Compound 54, 5,6-diamino-2-(4-(1-(1-(thiophen-2-ylmethyl)-1H-tetrazol-5-yl)propyl)piperazin-1-yl)benzothiazole]: the “Activity (EC1.5)” value is “H (EC1.5<5 μM)”.

For the compound `CCC(c1nnnn1CCc1cccs1)N1CCN(c2nc3cc(N)cc(F)c3s2)CC1` (stereo not drawn) [Compound 55, 5-amino-7-fluoro-2-(4-(1-(1-(thiophen-2-ylethyl)-1H-tetrazol-5-yl)propyl)piperazin-1-yl)benzothiazole], the “Activity (EC1.5)” value is reported as “H (EC1.5<5 μM)”.

In the case of `CCC(c1nnnn1Cc1ccc(C)s1)N1CCN(c2nc3cc(N)cc(F)c3s2)CC1` (stereo not drawn) [Compound 56, 5-amino-7-fluoro-2-(4-(1-(1-(5-methyl-thiophen-2-ylmethyl)-1H-tetrazol-5-yl)propyl)piperazin-1-yl)benzothiazole], the “Activity (EC1.5)” value is listed as “H (EC1.5<5 μM)”.

For the origin of these results see patent US10221168B1, “Small-compound enhancers for functional O-mannosylation of alpha-dystroglycan, and uses thereof” (priority 2015, dated 2019).
